{"source": "patent EP1543832A2", "about": "“Use of trans-4[4-(3-chloro-4-methoxy-benzylamino) benzothieno[2,3-d]pyrimidin-2-yl]-cyclohexanecarboxylic acid in the treatment of extrapyramidal movement disorders” (MERCK PATENT GmbH, priority 2003, dated 2005)", "key": {"catalepsy": {"test_system": "catalepsy", "assay": "Ability of a drug to induce catalepsy (extrapyramidal motor side effects)", "assay_type": "in vivo, rat", "conditions": "measured in e.g. rodents by the ability of a drug to induce catalepsy", "procedure": "(§1) Extrapyramidal motor side effects in e.g. rodents are measured by the ability of a drug to induce catalepsy. Catalepsy is defined as a state where an animal continues to remain in an unnormal (nonphysiological 'uncomfortable') posture for a long time (e.g.: M.E. Stanley and S.D. Glick, Neuropharmacology, 1996; 15: 393-394; C.J.E. Niemegeers and P. Janssen, Life Sci., 1979, […]). For example, if a hindpaw of a rat is placed on an elevated level, e.g. a platform elevated 3 cm above ground level, a normal rat immediately withdraws the hindpaw from the platform to the ground level. A cataleptic rat remains in this unnatural posture even for minutes."}, "[1]": {"test_system": "catalepsy induced by conventional antidopaminergic drugs", "assay": "Catalepsy induced by conventional antidopaminergic drugs such as haloperidol", "conditions": "rat, in vivo", "procedure": "as §1"}, "[2]": {"test_system": "Parkinsonian cynomolgus monkey", "assay": "MPTP Parkinsonian cynomolgus monkey, Laval University Disability Scale", "assay_type": "in vivo", "text": "A typical animal model for idiopathic Parkinson's disease is the Parkinsonian cynomolgus monkey according to P.J. Blanchet et al., Exp. Neurology 1998; 153: 214-222. Monkeys render parkinsonian by repeated injections of 1-methyl-4-phenyl-1,2,3,6-tetrahydropyridine (MPTP).\nParkinsonian symptoms are qualitatively assessed by the use of the Laval University Disability Scale (B. Gomez-Mancilla et al., 1993; Mov. Disord. 8: 144-150) measuring the following symptoms: posture, mobility, climbing, gait, holding food, vocalizing, grooming, social interaction."}, "[3]": {"test_system": "reserpinized rat or mouse", "assay": "Reserpine-induced akinesia in activity meters", "assay_type": "in vivo", "conditions": "24 h after reserpine", "procedure": "A typical animal model is the reserpinized rat or mouse (e.g. M.S. Starr and B.S. Starr, J. Neural Transm. - Park. Dis. Dement. Sect., 1994; 7: 133-142; M. Gossel et al., J. Neural Transm. - Park. Dis. Dement. Sect., 1995; 10: 27-39; N.R. Hughes et al., Mov. Disord., 1998; 13: 228-233). Reserpine is a potent depleter of monoamines and produces nearly complete akinesia in both species. Prominent 24 h after application, the distance travelled and the time active is nearly zero as measured in conventional activity meters."}, "[4]": {"test_system": "systemic 3-nitropropionic acid (3-NP) model in rats", "assay": "Systemic 3-nitropropionic acid (3-NP) model, nocturnal activity", "assay_type": "in vivo", "procedure": "A typical animal model is the systemic 3-nitropropionic acid (3-NP) model in rats according to C.V. Borlongan et al., Brain Res., 1995; 697: 254-257. Rats are treated with injections of the selective striatal neurotoxin 3-NP i.p. every fourth day (C.V. Borlongan et al., Brain Res. Protocols, 1997; 1: 253-257). After two injections of 3-NP, rats display nocturnal hyperactivity reflecting symptoms of early Huntington's disease, whereas rats treated with four injections of 3-NP display nocturnal akinesia (hypoactivity) reflecting symptoms of late Huntington's disease. Nocturnal activity is automatically measured in conventional acitivity cages by infrared beams. Trans-4-[4-(3-chloro-4-methoxybenzylamino)-benzothieno-[2,3-d]pyrimidin-2-yl]cyclohexanecarboxylic acid or a physiologically acceptable salt thereof reduce both the nocturnal hyperactivity and akinesia."}, "[5]": {"test_system": "patients with Huntington's disease", "assay": "Placebo-controlled add-on trial in Huntington's disease", "assay_type": "in vivo", "conditions": "AIMS, UHDRS, video recordings; add-on 2.5 to 20 mg b.i.d. versus placebo", "procedure": "A typical trial to establish the effect of the compounds according to the invention on chorea, voluntary motor performance, and functional disability in patients with Huntington's disease encompasses 32 genetically diagnosed patients. Trans-4-[4-(3-chloro-4-methoxybenzylamino)-benzothieno-[2,3-d]pyrimidin-2-yl]cyclohexanecarboxylic acid sodium or ethanolamine salt or placebo is administered as \"add on\" to the conventional treatment, which is maintained unchanged during the whole study. The dose of blinded medication is titrated over a period of 3 weeks in a range from 2.5 to 20 mg b.i.d. Then the medication is held constant for 1 week. Assessments are performed in the week before and at the last day of the trial. Chorea is scored using the abnormal involuntary movement scale (AIMS, W. Guy, in: ECDEU assessment manual. Rockville MD: US dept. of health, education and welfare, 1976: 534-537), the unified Huntington's disease rating scale (UHDRS, Huntington study group, 1996, Movement Disord, 11: 136-42), and judgement of video recordings. Voluntary motor performance is assessed using the UHDRS motor scale. Patients and their partners complete a questionnaire regarding functional disability."}, "mutant dystonic hamster": {"test_system": "mutant dystonic hamster", "assay": "Mutant dystonic hamster, scored dystonic attacks", "assay_type": "in vivo", "conditions": "scoring system", "text": "A typical animal model is the mutant dystonic hamster according to A. Richter and W. Löscher, Prog. Neurobiol. 1998; 54: 633-677. In this genetically dystonic hamsters, dystonic attacks are provoked by taking the animal from the home cage and placing it on a balance. The dystonic syndrome consists of a sequence of abnormal movements, and the severity of the single symptoms is rated by a scoring system."}, "[6]": {"test_system": "cervical dystonia (spasmodic torticollis)", "assay": "Double-blind placebo-controlled study in cervical dystonia (TWSTRS)", "assay_type": "in vivo, patients", "conditions": "2.5 mg to 20 mg b.i.d. versus placebo"}, "[7]": {"test_system": "neuroleptics sensitized monkey", "assay": "Neuroleptics sensitized monkey, haloperidol challenge", "assay_type": "in vivo", "conditions": "given after haloperidol challenge; scoring system", "text": "Another typical animal model is the neuroleptics sensitized monkey according to D.E. Casey, Psychopharmacology, 1996; 124: 134-140. Monkeys treated repeatedly with conventional neuroleptics are highly sensitive to a subsequent challenge dose of neuroleptic drugs. When challenged, the monkeys immediately show extrapyramidal motor side effects such as dystonia, dyskinesias, akathisia, and bradykinesia which are rated by a scoring system. The conventional neuroleptic drug haloperidol is given as a challenge."}, "Weaver mutant mouse": {"test_system": "Weaver mutant mouse", "assay": "Weaver mutant mouse, locomotor activity in activity cages", "assay_type": "in vivo", "text": "Typical genetic models in mutant animals are the Campus Syndrome in the Pietrain pig according to A. Richter et al. (Exp. Neurology, 1995; 134: 205-213) or the Weaver mutant mouse according to J.R. Simon and B. Ghetti (Mol. Neurobiol., 1994; 9: 183-189). In the Campus Syndrome model, these mutant pigs show a high-frequency tremor when standing and during locomotion, but not while lying at rest. Assessment of tremor is made by accelerometric recording. In the Weaver mutant mouse, degenerative cerebellar atrophy is fould in association with tremor, gait instability, and toppling over the sides after a few steps.\nTrans-4-[4-(3-chloro-4-methoxybenzylamino)-benzothieno-[2,3-d]pyrimidin-2-yl]cyclohexanecarboxylic acid or a physiologically acceptable salt thereof improve the Campus Syndrome in the Pietrain pig, i.e. reduce disabling tremor when standing and during locomotion, and enhance locomotor activity in the Weaver mutant mouse."}}}
{"smiles": "COc1ccc(CNc2nc([C@H]3CC[C@H](C(=O)O)CC3)nc3sc4ccccc4c23)cc1Cl", "note": "[trans-4-[4-(3-chloro-4-methoxybenzylamino)-benzothieno-[2,3-d]pyrimidin-2-yl]cyclohexanecarboxylic acid]", "values": [{"measurement": "liability to induce extrapyramidal side effects", "setting": "catalepsy", "result": "extremely low liability to induce extrapyramidal side effects"}, {"measurement": "prevention of catalepsy induced by conventional antidopaminergic drugs", "setting": "[1]", "result": "able to prevent catalepsy"}, {"measurement": "reversal of already existing catalepsy induced by conventional antidopaminergic drugs such as haloperidol", "setting": "[1]", "result": "reverses already existing catalepsy"}, {"measurement": "parkinsonian symptoms", "setting": "[2]; Laval University Disability Scale", "result": "reduced all the parkinsonian symptoms"}, {"measurement": "total activity", "setting": "[2]; MPTP monkeys", "result": "increased"}, {"measurement": "akinesia", "setting": "[3]", "result": "dose-dependently reduced"}, {"measurement": "distance travelled and time active", "setting": "[3]; conventional activity meters", "result": "restored distance travelled and time active to about the level of normal animals"}, {"measurement": "nocturnal akinesia", "setting": "[4]; after four injections of 3-NP (late Huntington's disease)", "result": "reduce"}, {"measurement": "nocturnal hyperactivity", "setting": "[4]; after two injections of 3-NP (early Huntington's disease)", "result": "reduce"}, {"measurement": "voluntary and involuntary motor performance", "setting": "[5]", "result": "significant improvement"}, {"measurement": "severity of dystonic symptoms", "setting": "mutant dystonic hamster", "result": "dose-dependently reduce"}, {"measurement": "TWSTRS scores", "setting": "[6]", "result": "significant improvement"}, {"measurement": "extrapyramidal motor side effects", "setting": "[7]", "result": "dose-dependently reduce"}, {"measurement": "locomotor activity", "setting": "Weaver mutant mouse", "result": "enhance"}]}
